{"source": "paper PMC7532004", "about": "“Site-specific effects of neurosteroids on GABAA receptor activation and desensitization” (eLife, 2020)", "target": "T1, α1β3 GABAAR WT (Homo sapiens, UniProt P14867+P28472)", "T1 construct": "inserted between the fourth and fifth residues of the mature peptide; photolabeling full-length heteropentameric GABAARs in native membranes; expressed in transfected cells", "T1 sequence (P14867 28-456)": "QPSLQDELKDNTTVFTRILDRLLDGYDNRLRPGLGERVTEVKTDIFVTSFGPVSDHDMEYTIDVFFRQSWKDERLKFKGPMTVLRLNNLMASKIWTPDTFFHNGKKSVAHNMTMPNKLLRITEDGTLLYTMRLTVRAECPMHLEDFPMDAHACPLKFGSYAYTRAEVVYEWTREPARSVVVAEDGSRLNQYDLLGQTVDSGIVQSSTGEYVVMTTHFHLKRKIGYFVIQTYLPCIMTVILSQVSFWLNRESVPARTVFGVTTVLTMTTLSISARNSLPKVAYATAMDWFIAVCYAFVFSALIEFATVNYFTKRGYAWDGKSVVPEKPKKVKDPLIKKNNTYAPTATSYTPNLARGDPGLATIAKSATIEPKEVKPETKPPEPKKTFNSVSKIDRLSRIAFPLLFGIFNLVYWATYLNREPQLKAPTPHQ", "T1 sequence (P28472 26-473)": "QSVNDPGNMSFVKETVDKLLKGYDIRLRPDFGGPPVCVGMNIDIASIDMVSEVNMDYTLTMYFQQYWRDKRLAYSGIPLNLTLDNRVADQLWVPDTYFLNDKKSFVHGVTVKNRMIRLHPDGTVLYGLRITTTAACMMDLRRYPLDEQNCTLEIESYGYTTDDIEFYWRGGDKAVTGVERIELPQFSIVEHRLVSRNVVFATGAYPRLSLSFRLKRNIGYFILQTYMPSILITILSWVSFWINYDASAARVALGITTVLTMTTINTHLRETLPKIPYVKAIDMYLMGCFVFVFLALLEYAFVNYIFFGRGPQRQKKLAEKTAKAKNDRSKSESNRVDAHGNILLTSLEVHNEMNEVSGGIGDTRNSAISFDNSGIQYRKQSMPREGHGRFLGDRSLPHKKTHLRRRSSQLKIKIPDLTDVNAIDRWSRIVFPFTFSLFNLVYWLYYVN", "assay": "[3H]muscimol binding to HEK cell membranes (neurosteroid modulation and isotherms), WT receptor", "conditions": "WT α1β3", "method": "Stably transfected cells were plated into dishes. After reaching 50% confluence, GABAA receptors were expressed by inducing cells with 1 μg/ml of doxycycline with the addition of 5 mM sodium butyrate. Cells were harvested 48 to 72 hr after induction. HEK cells, after induction, were grown to 100% confluence, harvested and washed with 10 mM potassium phosphate, 100 mM potassium chloride (pH 7.5) plus protease inhibitors (Sigma-Aldrich, St. Louis, MO) two times. The cells were collected by centrifugation at 1,000 g at 4°C for 5 min. The cells were homogenized with a glass mortar and a Teflon pestle for ten strokes on ice. The pellet containing the membrane proteins was collected after centrifugation at 20,000 g at 4°C for 45 min and resuspended in a buffer containing 10 mM potassium phosphate, 100 mM potassium chloride (pH 7.5). The protein concentration was determined with micro-BCA protein assay and membranes were stored at −80°C.\n[^3H]muscimol-binding assays were performed using a previously described method ([Chen et al., 2019]). […] Assay tubes were incubated for 1 hr on ice in the dark. […] Membranes were collected on Whatman/GF-C glass filter papers using a Brandel cell harvester (Gaithersburg, MD). To perform [^3H]muscimol binding isotherms, 100 μg/ml aliquots of membrane protein were incubated with 0.3 nM–1 μM [^3H]muscimol for 1 hr on ice in the dark. The specific activity for [^3H]muscimol concentrations from 30 nM to 1 μM was reduced to 2 Ci/mmol by dilution with nonradioactive muscimol. The membranes were collected on Whatman/GF-B glass filter papers using a vacuum manifold. […] For [^3H]muscimol-binding experiments examining competitive interactions between neurosteroids, the combined neurosteroids (0.3 μM 3α5αP or 3 μM KK148 ±30 μM KK150) or the same volume of dimethyl sulfoxide (DMSO) were added to the membranes which were then incubated with 3 nM [^3H]muscimol on ice for 1 hr. Time courses of neurosteroid [^3H]muscimol binding enhancement were examined by adding 10 µM of neurosteroids (3α5αP, 3β5αP) to membranes that had been fully equilibrated with 3 nM [^3H]muscimol for 1 hr on ice; binding was then measured as a function of time at 1, 3, 10, 30, 60 min. The membranes were collected on Whatman/GF-B glass filter papers using a vacuum manifold. Radioactivity bound to the filters was measured by liquid scintillation spectrometry using Bio-Safe II (Research Products International, Mount Prospect, IL)."}
{"smiles": "CCOC(=O)c1cncn1[C@H](C)c1ccccc1", "note": "[Etomidate, etomidate]", "values": [{"measurement": "Emax (% of control) of [3H]muscimol binding", "setting": "3 nM [3H]muscimol, 100% means no effect", "value": "331.1 ± 9.9 % of control"}, {"measurement": "Bmax of [3H]muscimol binding isotherm in the presence of the modulator", "setting": "etomidate 100 μM, 3α5αP 30 μM, KK148 30 μM, control 9.8 ± 0.8", "value": "10.1 ± 0.5", "unit": "pmol/mg"}]}
